# Measured values as given in patent publication US6992079B2, “Substituted 11-phenyl-dibenzazepine compounds useful for the treatment or prevention of diseases characterized by abnormal cell proliferation” (President Fellows of Harvard College, priority 1997, dated 2006).
# Legend:
# [1] = test system: NIH 3T3 mouse fibroblast cells; experiment: Mitogenic assay (mitogen-induced cell proliferation); type: cell-based; conditions: Mus musculus, NIH3T3, 10 μM compound
# [2] = target: T1, Gardos channel of erythrocytes (Homo sapiens, UniProt O15554); experiment: Gardos channel assay; type: cell-based
# T1 construct: endogenous in cells; host or cells: erythrocytes
# T1 sequence (O15554 whole entry): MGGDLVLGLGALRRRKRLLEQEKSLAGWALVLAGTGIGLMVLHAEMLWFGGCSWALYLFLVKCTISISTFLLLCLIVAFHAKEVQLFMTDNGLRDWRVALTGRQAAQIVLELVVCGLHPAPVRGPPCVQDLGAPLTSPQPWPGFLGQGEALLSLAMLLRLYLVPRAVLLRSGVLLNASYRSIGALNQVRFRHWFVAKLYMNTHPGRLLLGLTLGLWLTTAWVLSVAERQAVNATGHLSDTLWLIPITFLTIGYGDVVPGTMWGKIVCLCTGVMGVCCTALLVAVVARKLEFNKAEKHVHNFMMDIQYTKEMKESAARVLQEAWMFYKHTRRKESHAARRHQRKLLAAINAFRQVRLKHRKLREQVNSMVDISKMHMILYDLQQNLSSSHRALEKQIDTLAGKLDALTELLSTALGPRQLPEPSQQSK
# MMRU = experiment: SRB antiproliferative assay; type: cell-based; conditions: Homo sapiens
# Text: (§1) The cells were passaged using Trypsin (Gibco).
# HEPG2 = experiment: SRB antiproliferative assay; type: cell-based; conditions: Homo sapiens, HepG2, HEPG2 (Hepatocel), 5% FCS/5 day incubation
# Text: as §1
# HTB174 = experiment: SRB antiproliferative assay; type: cell-based; conditions: Homo sapiens, HTB174 (Lung), 5% FCS/5 day incubation
# Text: as §1
# A549 = experiment: SRB antiproliferative assay; type: cell-based; conditions: Homo sapiens
# Text: as §1
# HT29 = experiment: SRB antiproliferative assay; type: cell-based; conditions: Homo sapiens
# Text: as §1
# MCF7 = experiment: SRB antiproliferative assay; type: cell-based; conditions: Homo sapiens
# Text: as §1
# SK-MEL-28 = experiment: SRB antiproliferative assay; type: cell-based; conditions: Homo sapiens, SK-MEL-28 (Melanoma), 5% FCS/5 day incubation
# Text: as §1
# DU-145 = experiment: SRB antiproliferative assay; type: cell-based; conditions: Homo sapiens, DU-145 (Prostate), 5% FCS/5 day incubation
# Text: as §1
# HUVEC = experiment: SRB antiproliferative assay; type: cell-based; conditions: HUVEC (Normal human), 5% FCS/5 day incubation
# Text: as §1
# L929 = experiment: SRB antiproliferative assay; type: cell-based; conditions: L929 (Normal mouse), 5% FCS/5 day incubation
# Text: as §1
# GM = experiment: SRB antiproliferative assay; type: cell-based; conditions: GM (Normal human), 5% FCS/5 day incubation
# Text: as §1
# CaSki = experiment: SRB antiproliferative assay; type: cell-based; conditions: Homo sapiens, Ca-Ski, CaSki (Cervical), 5% FCS/5 day incubation
# Text: as §1
# ACHN = experiment: SRB antiproliferative assay; type: cell-based; conditions: Homo sapiens, ACHN (Renal), 5% FCS/5 day incubation
# Text: as §1
# HCT-15 = experiment: SRB antiproliferative assay; type: cell-based; conditions: Homo sapiens, HCT-15 (Colon), 5% FCS/5 day incubation
# Text: as §1
# HeLa = experiment: SRB antiproliferative assay; type: cell-based; conditions: Homo sapiens, HeLa (Cervical), 5% FCS/5 day incubation
# Text: as §1
# U118MG = experiment: SRB antiproliferative assay; type: cell-based; conditions: Homo sapiens, U-118-MG, U118MG (CNS), 5% FCS/5 day incubation
# Text: as §1
# MDA-MB-23 = experiment: SRB antiproliferative assay; type: cell-based; conditions: Homo sapiens, MDA-MB-23
# Text: as §1
# [3] = MMRU (Melanoma), 5% FCS/5 day incubation
# [4] = A549, A549 (Lung), 5% FCS/5 day incubation
# [5] = HT-29, HT29 (Colon), 5% FCS/5 day incubation
# [6] = MCF7, MCF7 (Breast), 5% FCS/5 day incubation
smiles,measurement,setting,value
COc1cccc(C(=O)N2Cc3ccccc3C(c3ccccc3)c3ccccc32)c1 (stereo not shown) [Compound 17],inhibition at 10 µM,[1],99%
"COC(=O)N1Cc2ccccc2C(c2ccccc2Cl)c2ccccc21 (stereo not shown) [Compound 9, N-methoxycarbonyl-11-(2′-chlorophenyl)-5,6-dihydro-11H-dibenz[b,e]azepine]",inhibition at 10 µM,[1],99%
same,melting point,,159 to 161 °C
CN1Cc2ccccc2C(c2ccccc2)c2ccccc21 (stereo not shown) [Compound 2],inhibition at 10 µM,[1],99%
CN1Cc2ccccc2C(c2ccccc2Cl)c2ccccc21 (stereo not shown) [Compound 29],IC50,[2],0.414 to 0.433 µM
"O=C(Oc1ccccc1)N1Cc2ccccc2C(c2ccccc2Cl)c2ccccc21 (stereo not shown) [Compound 26, N-phenoxycarbonyl-11-(2′-chlorophenyl)-5,6-dihydro-11H-dibenz[b,e]azepine]",inhibition at 10 µM,[1],99%
same,melting point,,95 to 99 °C
O=C(Nc1ccc([N+](=O)[O-])cc1)N1Cc2ccccc2C(c2ccccc2Cl)c2ccccc21 (stereo not shown) [Compound 35],inhibition at 10 µM,[1],0%
same,IC50,MMRU; [3],3.1 µM
same,IC50,HEPG2,4.5 µM
same,IC50,HTB174,4 µM
same,IC50,A549; [4],> 5 µM
same,IC50,HT29; [5],4.8 µM
same,IC50,MCF7; [6],2.4 µM
"COc1cc([C@@H]2c3cc4c(cc3[C@@H](O[C@@H]3O[C@@H]5CO[C@@H](C)O[C@H]5[C@H](O)[C@H]3O)[C@H]3COC(=O)[C@H]23)OCO4)cc(OC)c1O [VP-16, Etoposide, reference compound]",IC50,SK-MEL-28,< 1.25 µM
same,IC50,MMRU; [3],< 1.25 µM
same,IC50,"MMRU; MMRU, 2% FCS/3 days",< 2.5 µM
same,IC50,HEPG2,< 1.25 µM
same,IC50,HTB174,< 1.25 µM
same,IC50,A549; [4],< 1.25 µM
same,IC50,"A549; A549, A549, 2% FCS/3 days",2.3 µM
same,IC50,HT29; [5],< 1.25 µM
same,IC50,"HT29; HT-29, HT29, 2% FCS/3 days",20 µM
same,IC50,DU-145,< 1.25 µM
same,IC50,HUVEC,< 1.25 µM
same,IC50,L929,< 1.25 µM
same,IC50,MCF7; [6],< 1.25 µM
same,IC50,"MCF7; MCF7, MCF7, 2% FCS/3 days",< 2.5 µM
same,IC50,GM,1.4 µM
same,IC50,CaSki,1.8 µM
same,IC50,ACHN,< 1.25 µM
same,IC50,HCT-15,1.3 µM
same,IC50,HeLa,< 1.25 µM
same,IC50,U118MG,2.2 µM
same,IC50,MDA-MB-23,< 1.25 µM
Cc1ccc(C(=O)N2Cc3ccccc3C(c3ccccc3)c3ccccc32)cc1 (stereo not shown) [Compound 22],inhibition at 10 µM,[1],99%
same,IC50,HTB174,1.4 µM
COC(=O)N1Cc2ccccc2C(c2ccccc2)c2ccccc21 (stereo not shown) [Compound 6],inhibition at 10 µM,[1],87%
same,IC50,"A549; A549, A549, 5% FCS/2 days",> 10 µM
same,IC50,"HT29; HT-29, HT29, 5% FCS/2 days",> 10 µM
COc1ccc2c(c1)CNc1ccc(Cl)cc1C2c1ccccc1Cl (stereo not shown) [Compound 19],inhibition at 10 µM,[1],99%
CN1Cc2ccccc2C(c2ccccc2Cl)c2ccccc21 (stereo not shown) [Compound 4],inhibition at 10 µM,[1],89%
same,IC50,"MMRU; MMRU, 2% FCS/3 days",4.6 µM
same,IC50,"A549; A549, A549, 2% FCS/3 days",11.4 µM
same,IC50,"HT29; HT-29, HT29, 2% FCS/3 days",9.7 µM
same,IC50,"MCF7; MCF7, MCF7, 2% FCS/3 days",1.7 µM
CNc1ccc(C(=O)N2Cc3ccccc3C(c3ccccc3Cl)c3ccccc32)cc1 (stereo not shown) [Compound 33],inhibition at 10 µM,[1],99%
same,IC50,HTB174,1.4 µM
O=C(c1ccccc1)N1Cc2ccccc2C(c2ccccc2)c2ccccc21 (stereo not shown) [Compound 16],inhibition at 10 µM,[1],99%
same,IC50,MMRU; [3],2.7 µM
same,IC50,HEPG2,3.4 µM
same,IC50,A549; [4],> 5 µM
same,IC50,HT29; [5],2.6 µM
same,IC50,MCF7; [6],4.2 µM
Clc1ccc2c(c1)C(c1ccccc1)c1cc3ccccc3cc1CN2 (stereo not shown) [Compound 15],inhibition at 10 µM,[1],40%
Nc1ccc(C(=O)N2Cc3ccccc3C(c3ccccc3Cl)c3ccccc32)cc1 (stereo not shown) [Compound 34],inhibition at 10 µM,[1],99%
same,IC50,MMRU; [3],1.2 µM
same,IC50,HEPG2,1.5 µM
same,IC50,HTB174,0.9 µM
COc1ccc2c(c1)CN(C(=O)c1ccc(Cl)cc1)c1ccc(Cl)cc1C2c1ccccc1Cl (stereo not shown) [Compound 23],inhibition at 10 µM,[1],55%
Clc1ccccc1C1c2ccccc2CN(Cc2ccccc2)c2ccccc21 (stereo not shown) [Compound 8],inhibition at 10 µM,[1],84%
